Measurements reported in patent US11926610B1, “9-(2-hydroxypyridin-3-yl)10-(2-hydroxyethyl)-3,6-diphenyl-3,4,6,7,9,10-hexahydroacridine1,8(2H,5H)-dione as an antimicrobial compound” (KING FAISAL UNIVERSITY, priority 2023, dated 2024).

Assays:
Type in all cases: cell-based
Details in all cases: after 10, 20, 40 and 60 minutes at all dilutions 1:100, 1:200, 1:400, 1:800
Staphylococcus aureus = assay: Antimicrobial screening by agar dilution, Staphylococcus aureus
Protocol: (§1) The antibacterial properties of the synthesized compound 9-(2-hydroxypyridin-3-yl)-10-(2-hydroxyethyl)-3,6-diphenyl-3,4,6,7,9,10-hexahydroacridine1,8(2H,5H)-dione were studied by the method of agar dilution. Test solutions of each compound was prepared in concentration of 1% using dimethylformamide as a solvent then they are diluted in physiological solution to obtain the final experimental dilutions 1:100, 1:200, 1:400, 1:800. The effect of these substances are compared with furacillin in a controllable study. The testing microbes used were gram positive bacteria Staphylococcus aureus, gram negative bacteria Pseudomonas aeruginosa and Escherichia coli and Candida albicans fungus. The experiments used for this survey were meat-pentonlu agar (EPA) for cultivation of bacteria and Saburo environment for the fungus. Each experiment used 1 mL of test solution on each plate […]. Two drops of emulsified with microbes feel were added. All experimental samples were taken from the agar after 10, 20, 40, 60 minutes in the environment on the basis of Patrk planted. The bacteria were cultivated at a temperature of 37° C. for 1 day and the mushroom was kept in a thermostat for 2 hours at a temperature of 28° C. Then results were checked.

Escherichia coli = assay: Antimicrobial screening by agar dilution, Escherichia coli
Protocol: as §1

Pseudomonas aeruginosa = assay: Antimicrobial screening by agar dilution, Pseudomonas aeruginosa
Protocol: as §1

Candida albicans = assay: Antimicrobial screening by agar dilution, Candida albicans
Protocol: as §1

Measured: inhibition activity (in words)

O=C1CC(c2ccccc2)CC2=C1C(c1cccnc1O)C1=C(CC(c3ccccc3)CC1=O)N2CCO (stereo not shown) [9-(2-hydroxypyridin-3-yl)-10-(2-hydroxyethyl)-3,6-diphenyl-3,4,6,7,9,10-hexahydroacridine1,8(2H,5H)-dione]
highest inhibition activity: all assays above
